From article PMC3406030, “Structure of an MmyB-Like Regulator from C. aurantiacus, Member of a New Transcription Factor Family Linked to Antibiotic Metabolism in Actinomycetes” (PLoS ONE, 2012)

Legend:
[1] = molecular target: T1, MltR (Caur_2278) (Chloroflexus aurantiacus, UniProt A9WGF5); test: X-ray crystallography (SAD, […] Å); type: binding; conditions: co-purified ligand, none added; identity tentative, modelled from electron density (related fatty acid, mixture or PEG fragment not excluded); PAS-like C-terminal domain; pH 9.1, 277 K
T1 construct: full length, 291 residues, SeMet derivative; N-terminal His tag cut by TEV leaving Gly0; expressed in E. coli; dimer in crystal, monomer by size exclusion
T1 sequence (A9WGF5 1-291): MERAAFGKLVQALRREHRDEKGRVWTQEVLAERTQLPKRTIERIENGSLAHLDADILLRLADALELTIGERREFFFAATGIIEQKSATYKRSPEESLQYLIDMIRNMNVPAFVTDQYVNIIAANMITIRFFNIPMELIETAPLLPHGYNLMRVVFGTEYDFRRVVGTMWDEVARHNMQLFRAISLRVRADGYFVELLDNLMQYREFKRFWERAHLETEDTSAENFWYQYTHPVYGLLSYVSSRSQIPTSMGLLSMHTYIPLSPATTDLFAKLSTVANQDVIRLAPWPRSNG

[2] = molecular target: MmyB-like transcription regulator MltR (Caur_2278) from Chloroflexus aurantiacus (Chloroflexus aurantiacus J-10-fl) (UniProt A9WGF5); test: crystal structure; SeMet MltR, tag removed, 11.1 mg/ml; 0.2M NaCl, 10.5% polyethylene glycol 8000, 0.1M CHES pH 9.1, 277 K; space group C2, three monomers (1.5 dimers) in the asymmetric unit; bound myristic acid

Compound	X-ray crystallography (SAD, 2.3 Å) [1]	stoichiometry N [2]
CCCCCCCCCCCCCC(=O)O [MYR, myristic acid]	additional electron density in the putative ligand-binding site clearly indicated the presence of a fatty acid-type ligand	
MmyB-like transcription regulator MltR (Caur_2278) from Chloroflexus aurantiacus (from UniProt A9WGF5 1-291) (natural protein)		2
